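Compound exposure: 48 hours, 5 concentrations, 96-well plates. TGI: total growth inhibition.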
Assays:
Assay in all cases: DTP human tumour cell line panel, 48 h
[1] = system: SNB-19 CNS
[2] = system: SK-OV-3 ovarian
[3] = system: OVCAR-3 ovarian
[4] = system: UO-31 renal
[5] = system: CAKI-1 renal
[6] = system: SF-539 CNS
[7] = system: TK-10 renal
[8] = system: NCI/ADR-RES ovarian
[9] = system: UACC-257 melanoma
[10] = system: A498 renal
[11] = system: RPMI-8226 leukemia
[12] = system: LOX IMVI melanoma
[13] = system: U251 CNS
[14] = system: T-47D breast
[15] = system: MOLT-4 leukemia
[16] = system: SK-MEL-28 melanoma
[17] = system: SF-295 CNS
[18] = system: MCF7 breast
[19] = system: COLO 205 colon
[20] = system: MDA-N
[21] = system: RXF 393 renal
[22] = system: OVCAR-8 ovarian
[23] = system: HCT-116 colon
[24] = system: NCI-H226 lung
[25] = system: HT29 colon
[26] = system: SNB-75 CNS
[27] = system: UACC-62 melanoma
[28] = system: 786-0 renal
[29] = system: CCRF-CEM leukemia
[30] = system: SN12C renal
[31] = system: PC-3 prostate
[32] = system: BT-549 breast
[33] = system: HL-60(TB) leukemia
[34] = system: HS 578T breast
[35] = system: SK-MEL-5 melanoma
[36] = system: OVCAR-4 ovarian
[37] = system: DU-145 prostate
[38] = system: SR leukemia
[39] = system: ACHN renal
[40] = system: HCT-15 colon
[41] = system: IGROV1 ovarian
[42] = system: NCI-H23 lung
[43] = system: MDA-MB-435
[44] = system: EKVX NSCLC
[45] = system: OVCAR-5 ovarian
[46] = system: A549 NSCLC
[47] = system: SF-268 CNS
[48] = system: MDA-MB-231 breast
[49] = system: HOP-62 NSCLC
[50] = system: K-562 leukemia
[51] = system: HOP-92 NSCLC
[52] = system: MALME-3M melanoma
[53] = system: NCI-H522 lung
[54] = system: SK-MEL-2 melanoma
[55] = system: M14 melanoma
[56] = system: SW-620 colon
[57] = system: KM12 colon
[58] = system: NCI-H460 lung
[59] = system: HCC-2998 colon

## CC1(C)OC(=O)CC12CCN(Cc1ccccc1)CC2
[1]
  TGI: > 100 µM
[2]
  TGI: > 100 µM
[3]
  TGI: > 100 µM
[4]
  TGI: > 100 µM
[5]
  TGI: > 100 µM
[6]
  TGI: > 100 µM
[7]
  TGI: > 100 µM
[8]
  TGI: > 100 µM
[9]
  TGI: > 100 µM
[10]
  TGI: > 100 µM
[11]
  TGI: > 100 µM
[12]
  TGI: > 100 µM
[13]
  TGI: > 100 µM
[14]
  TGI: > 100 µM
[15]
  TGI: > 100 µM
[16]
  TGI: > 100 µM
[17]
  TGI: > 100 µM
[18]
  TGI: > 100 µM
[19]
  TGI: > 100 µM
[20]
  TGI: > 100 µM
[21]
  TGI: > 100 µM
[22]
  TGI: > 100 µM
[23]
  TGI: > 100 µM
[24]
  TGI: > 100 µM
[25]
  TGI: > 100 µM
[26]
  TGI: > 100 µM
[27]
  TGI: > 100 µM
[28]
  TGI: > 100 µM
[29]
  TGI: > 100 µM
[30]
  TGI: > 100 µM
[31]
  TGI: > 100 µM
[32]
  TGI: > 100 µM
[33]
  TGI: > 100 µM
[34]
  TGI: > 100 µM
[35]
  TGI: > 100 µM
[36]
  TGI: > 100 µM
[37]
  TGI: > 100 µM
[38]
  TGI: > 100 µM
[39]
  TGI: > 100 µM
[40]
  TGI: > 100 µM
[41]
  TGI: > 100 µM
[42]
  TGI: > 100 µM
[43]
  TGI: > 100 µM
[44]
  TGI: > 100 µM
[45]
  TGI: > 100 µM
[46]
  TGI: > 100 µM
[47]
  TGI: > 100 µM
[48]
  TGI: > 100 µM
[49]
  TGI: > 100 µM
[50]
  TGI: > 100 µM
[51]
  TGI: > 100 µM
[52]
  TGI: > 100 µM
[53]
  TGI: > 100 µM
[54]
  TGI: > 100 µM

## O=C1OC2(c3ccc(O)cc3Oc3cc(O)ccc32)c2c1c(-c1ccccc1)c(-c1ccccc1)c(-c1ccccc1)c2-c1ccccc1
[1]
  TGI: 37.7 µM
[2]
  TGI: > 100 µM
[3]
  TGI: > 100 µM
[4]
  TGI: 63.7 µM
[5]
  TGI: 62.8 µM
[6]
  TGI: 40.8 µM
[7]
  TGI: 59.6 µM
[8]
  TGI: 98.2 µM
[9]
  TGI: 78.3 µM
[10]
  TGI: 33.9 µM
[11]
  TGI: 70.2 µM
[12]
  TGI: 32.4 µM
[13]
  TGI: 31.5 µM
[14]
  TGI: 71.4 µM
[15]
  TGI: 56.9 µM
[16]
  TGI: 44.6 µM
[17]
  TGI: 49.5 µM
[18]
  TGI: 31.1 µM
[55]
  TGI: 34.4 µM
[19]
  TGI: 35.2 µM
[56]
  TGI: 52 µM
[20]
  TGI: 44.9 µM
[21]
  TGI: 67.2 µM
[22]
  TGI: 45.2 µM
[23]
  TGI: 57.3 µM
[24]
  TGI: 87.3 µM
[57]
  TGI: 32.3 µM
[25]
  TGI: 40.4 µM
[26]
  TGI: 41 µM
[27]
  TGI: 32.9 µM
[28]
  TGI: 75.6 µM
[30]
  TGI: 60.3 µM
[31]
  TGI: 32.7 µM
[32]
  TGI: 53.8 µM
[33]
  TGI: 39.4 µM
[34]
  TGI: 47.7 µM
[35]
  TGI: 54 µM
[36]
  TGI: 80.7 µM
[37]
  TGI: 35.2 µM
[38]
  TGI: 46.1 µM
[39]
  TGI: 40.9 µM
[40]
  TGI: 38.5 µM
[41]
  TGI: 37.4 µM
[43]
  TGI: 35.1 µM
[44]
  TGI: 59.1 µM
[45]
  TGI: 49.3 µM
[46]
  TGI: > 100 µM
[47]
  TGI: 53.1 µM
[48]
  TGI: 37.4 µM
[49]
  TGI: 67.8 µM
[50]
  TGI: 70 µM
[58]
  TGI: 33.7 µM
[51]
  TGI: 36.8 µM
[52]
  TGI: 44.6 µM
[59]
  TGI: 30 µM
[53]
  TGI: 32.6 µM
[54]
  TGI: 36.3 µM

— PubChem BioAssay (NCI)
